Reference: PMC4879371, “Antitrypanosomal Activities and Mechanisms of Action of Novel Tetracyclic Iridoids from Morinda lucida Benth” (Antimicrobial Agents and Chemotherapy, 2016)

How the values were obtained:
Hs888Lu (lung) = assay: MTT cytotoxicity assay, Hs888Lu; type: cell-based, human; settings: IC50 Hs888Lu / IC50 trypanosomes
Protocol: (§1) The cytotoxicity of the compounds to mammalian cells were determined using four human normal cell lines, namely, NB1RGB (skin fibroblast) and HF-19 (lung fibroblast) obtained from the RIKEN Bio Resource Center Cell Bank (Japan) and Chang Liver and Hs888Lu (lung) obtained from the European Collection of Authenticated Cell Cultures (ECACC). NB1RGB and HF-19 were maintained in minimum essential medium-α (MEM-α). Chang Liver and Hs888Lu were grown in Eagle's minimum essential medium (EMEM) and RPMI 1640, respectively. All of these media were supplemented with 10% fetal bovine serum (FBS) and 1% penicillin-streptomycin and were then incubated at 37°C under 5% CO2 in fully humidified conditions.
(§2) Cytotoxicity was determined using a 3-(4,5-dimethylthiazol-2-yl)-2,5-diphenyltetrazolium bromide (MTT) assay. The cells were treated with molucidin, ML-2-3, or ML-F52 at concentrations of ≤50 μM for 48 h. Cells were plated at a density of 0.5 × 10^4 cells/well into 96-well plates. After 24 h of incubation, cells were treated with various concentrations of each of the purified compounds for 48 h. Then, MTT solution was added to each well, and the cells were incubated for another 4 h. The precipitated MTT-formazan product was dissolved in 0.04 N HCl-isopropanol, and the amount of formazan was measured at a wavelength of 595 nm by a microplate reader (Immuno Mini NJ-2300; Nihon InterMed, Tokyo, Japan). Cytotoxicity was calculated as the percentage of live cells relative to the control culture. The selectivity index (SI) was expressed as the ratio of the IC50 obtained for mammalian cells and the IC50 for trypanosomes.

[1] = MTT cytotoxicity assay, Hs888Lu; type: cell-based, human; settings: human, Hs888Lu lung cells; Hs888Lu normal lung, 48 h
Protocol: as §1, §2

Plasmodium yoelii = assay: Preliminary in vivo studies against Plasmodium yoelii; settings: BALB/c mice, unpublished data
[2] = system: GUTat 3.1 strain of the bloodstream form of T. brucei brucei; assay: alamarBlue in vitro viability test for trypanosome parasites; type: cell-based; settings: Trypanosoma brucei, 48 h of incubation, read-out: IC50, antitrypanosomal activity
Protocol: The GUTat 3.1 strain of the bloodstream form of T. brucei brucei parasites was used in this study. Parasites were cultured in vitro according to the conditions established previously ([36]). Parasites were used when they reached a confluent concentration of 1 × 10^6 parasites/ml. Estimation of parasitemia was done with the Neubauer counting chamber. Parasites were diluted to a concentration of 3 × 10^5 parasites/ml with HM1-9 medium and were used for the various experiments.
The alamarBlue assay (Life Technologies, USA) was carried out on treated or untreated trypanosome parasites to ascertain their viability. The assay was performed in a 96-well plate following the manufacturer's instructions with modification. Briefly, 1.5 × 10^4 parasites were seeded with varied concentrations of plant material (extracts, fractions, or compounds) ranging from 0.78 μg/ml to […]. Final concentrations of EtOH and dimethyl sulfoxide (DMSO) were kept at <1% and 0.1%, respectively. After incubation of parasites with or without plant extracts or compounds for 24 h at 37°C in 5% CO2, 10% alamarBlue dye was added, and the parasites were incubated another 24 h in darkness. After a total of 48 h, the plate was read for absorbance at 540 nm using the Tecan Sunrise Wako spectrophotometer. The trend curve was drawn to obtain a 50% inhibitory concentration (IC50) of each plant material (extracts, fractions, and compounds).

[3] = system: Trypanosoma brucei parasites; assay: FACS cell cycle assay, time course; type: cell-based
Protocol: Seeding and incubation of parasites with compounds were done under the same conditions as those for the alamarBlue assay as described above without addition of the alarmarBlue reagent. In this case, after 24 h of incubation, Guava reagents for Nexin and cell cycle assays were added, and each assay was performed using the Millipore Guava easyCyte 5HT fluorescence-activated cell sorter (FACS) machine according to the manufacturer's instruction. The Nexin assay and subsequent FACS analysis allowed for detection of markers of apoptosis induction by the plant materials. Similarly, the cell cycle assay and subsequent FACS analysis allowed for detection of markers of cell cycle alteration by the plant materials.
To investigate the sequence in which the events (apoptosis induction, PFR-2 suppression, and cell cycle alteration) involved in mechanisms of action occur, we examined the time course for the three events using ML-2-3-treated parasites. Trypanosoma brucei parasites were incubated for 0, 0.5, 1.5, 3, 6, and 24 h with 15 μM ML-2-3 and were then subjected to both Nexin assay and Western blot analyses using the PFR-2 antibody. We further investigated the time course of cell cycle alteration using ML-2-3-treated parasites at similar concentrations and incubation periods.

[4] = system: four human normal cell lines (NB1RGB, HF-19, Chang Liver, Hs888Lu); assay: MTT cytotoxicity assay, all cell lines tested; type: cell-based
Protocol: as §1, §2

Compound | SI (selectivity index) (Hs888Lu (lung)) | IC50 at 48 h [1] [µM] | efficacy against Plasmodium yoelii in vivo (Plasmodium yoelii) | IC50 [2] [µM] | time of exposure to significant changes in cell cycle ([3]; 15 μM ML-2-3) [h] | S-phase cells ([3]; 15 μM, 0.5 h to 24 h) | G2/M-phase cells ([3]; 15 μM, within 0.5 h of exposure, decreased from 31%) [%] | selectivity index (SI) for all of the cell lines [4] | cytotoxicity among all cell lines ([4]; ≤50 μM, 48 h)
COC(=O)C1=CO[C@@H]2O[C@H]3/C(=C\c4ccc(O)c(OC)c4)C(=O)O[C@]34C=C[C@H]1[C@H]24 [molucidin] | 7.31 | 9.29 | significant efficacy | 1.27 | – | – | – | – | –
COc1cc(/C=C2/C(=O)O[C@]34C=C[C@@H]5C(C(=O)O)=CO[C@H](O[C@@H]23)[C@@H]54)ccc1O [ML-2-3] | >13.33 | > 50 | – | 3.75 | ≤ 0.5 | stayed stable | 9 | > 10 | did not show any cytotoxicity
CCOC(=O)C1=CO[C@@H]2O[C@H]3/C(=C\c4ccc(O)c(OC)c4)C(=O)O[C@]34C=C[C@H]1[C@H]24 [ML-F52] | 20.67 | 8.89 | – | 0.43 | – | – | – | > 10 | –
